Where a name gives a salt, the structure may show the parent alone. Numbered stars: 1 amine (or outer) side, 2 acyl side, 3 side chain; on linkers, the order of the positions; unused ones are H or OH. Square brackets hold non-standard residues; d marks the D form. Ends that are not written are not given here. Peptide text beside a SMILES is read from it. Pro(trans-4-F) = O=C(O)[C@@H]1C[C@@H](F)CN1; X2 = C[C@@H]1CC[C@@H](C(=O)[*:2])N1[*:1]; Pro(4,4-Me2) = CC1(C)CN[C@H](C(=O)O)C1; d(cisHyp) = O=C(O)[C@H]1C[C@@H](O)CN1; Pro(4-oxo) = O=C1CN[C@H](C(=O)O)C1; cisHyp = O=C(O)[C@@H]1C[C@H](O)CN1; X1 = O=C([C@H](CCCCO)N[*:1])[*:2]; Hyp = O=C(O)[C@@H]1C[C@@H](O)CN1; dHyp = O=C(O)[C@H]1C[C@H](O)CN1; pGlu = O=C1CC[C@@H](C(=O)O)N1
How the values were obtained:
[1] = test system: cornea of rats with dry eye syndrome (ELGE); assay: Corneal permeability of fluorescent dye (corneal damage) in ELGE rats with dry eye syndrome; type: in vivo, rat; conditions: 5 μl/eye twice daily, day 14
Outline: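 Dry eye induced in male Sprague-Dawley rats by extraorbital lacrimal gland excision; from day 7, 3 mg/ml compound in saline given at 5 μl/eye twice daily. After 14 doses, rats anaesthetized (Zolethyl 25 mg/kg ip), 1% fluorescein applied 1 h, and corneal staining read 12-24 h later by slit-lamp under blue light.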

[2] = test system: rats with dry eye syndrome (extraorbital lacrimal gland excision, ELGE); assay: Amount of tear secretion (Schirmer test, cobalt chloride paper) in ELGE rats with dry eye syndrome; type: in vivo, rat; conditions: for Tear Volumes, Day 7 / Tear Volumes, Day 14: ELGE rats, 3 mg/ml, 5 μl/eye twice daily; for Tear Volumes, Day 7: day 7 of administration; for Tear Volumes, Day 14: day 14 of administration; for Change in amount of tear secretion as compared with the ELGE control group: study of YDE-029 to YDE-043, 3% solution as printed, after administration for 14 days
Outline: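 Dry eye induced in male Sprague-Dawley rats by extraorbital lacrimal gland excision; sham-operated controls. From 7 days post-surgery, 3 mg/ml test compounds in saline given topically at 5 μl/eye twice daily for 14 days. Tear secretion measured on days 7 and 14 as wetted length of cobalt chloride paper held 60 s in the lateral canthus.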

[3] = test system: human primary corneal epithelial cells; assay: Cell growth rate of human primary corneal epithelial cells (CellTiter-Glo); type: cell-based; conditions: 48 hours and 72 hours
Experimental: In order to confirm whether the YDE derivatives could recover corneal damage, the cellular growth rate of human primary corneal epithelial cells was checked.
Specifically, primary corneal epithelial cells (ATCC, ATCC PCS-700-010) were seeded on a 96-well culture plate (Perkin Elmer, 6005680) containing the Corneal Epithelial Cell Basal Medium (ATCC, ATCC PCS-700-030) in the Corneal Epithelial Cell Growth Kit (ATCC, ATCC PCS-700-040) in an amount of 5×10^3 cells per well, which was then cultured for 24 hours under the conditions of 37° C. and 5% CO2.
YDE-001 to YDE-075 were each dissolved in 100% DMSO (Sigma, D2660) to a concentration of 10 mM, which was then diluted with 100% DMSO to a concentration of the compound of 6, 1.9, 0.6, 0.2, 0.06, 0.02, 0.006, and 0.002 mM. 20 μl of the diluted YDE derivative was added to a 96-well microplate (Greiner Bio-One, 651201) containing 380 μl of the Corneal Epithelial Cell Basal Medium such that the concentration of DMSO was diluted to 5%.
After 24 hours, 20 μl of each of the YDE derivatives diluted in the 96-well microplate was added to the 96-well culture plate containing the cells. As a control group, hEGF (Sigma, E9644) was treated at the same concentration as the YDE derivatives. The cells treated with the YDE-derivatives or hEGF were cultured for 48 hours and 72 hours under the conditions of 37° C. and 5% CO2 (FIGS. 18 to 25).
The cultured cells were treated with the CellTiter-Glo luminescent reagent (Promega, G7573) according to the manufacturer's instructions and reacted for 30 minutes at room temperature. Thereafter, the fluorescent signal (or luminescence signal) was checked using an Envision 2014 Multi-label plate reader. The measured values were normalized using a vehicle control (100% proliferation cell).

[4] = Stability in aqueous solution under long-term storage conditions (related substances); type: physicochemical; conditions: 25° C., 75% RH
Outline: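 Test substances dissolved in water at 1 mg/ml, sealed in glass vials and held at 25° C./75% RH. Related substances measured at 1, 2, 4, 8 and 12 weeks.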

[5] = Table 4, study of YDE-001 to YDE-028
[6] = Table 7, study of YDE-029 to YDE-043, 3 mg/ml
[7] = Table 5, study of YDE-029 to YDE-043

Molecule	Permeability of fluorescent dye ([1]; Table 6, study of YDE-001 to YDE-028, 3 mg/ml)	Tear Volumes, Day 7 [2, 5]	Tear Volumes, Day 14 [2, 5]	Cell proliferation rate (in words) [3]	Amount of related substances (after 12 weeks) [4]	Permeability of fluorescent dye [1, 6]	Tear Volumes, Day 7 [2, 7]	Tear Volumes, Day 14 [2, 7]	Change in amount of tear secretion as compared with the ELGE control group [2]
CC(C)C[C@H](NC(=O)CNC(=O)[C@H](CC(C)C)NC(=O)[C@H](CCC(N)=O)NC(=O)CNC(=O)[C@@H]1C[C@@H](O)CN1)C(=O)N[C@@H](C)C(=O)NCC(=O)N1CCC[C@H]1C(=O)N[C@@H](CCCCN)C(=O)O [YDE-011, H-Hyp-Gly-Gln-Leu-Gly-Leu-Ala-Gly-Pro-Lys-OH AcOH salt] (H-[Hyp]GQLGLAGPK-OH)	18.11 ± 11.61%	4.22 ± 1.45 mm^3	6.16 ± 2.16 mm^3	high cell proliferation rate	3.83%				
CC(C)C[C@H](NC(=O)CNC(=O)[C@H](CC(C)C)NC(=O)[C@H](CCC(N)=O)NC(=O)CNC(=O)[C@@H]1C[C@@H](O)CN1)C(=O)N[C@@H](C)C(=O)NCC(=O)N1CCC[C@H]1C(=O)N[C@@H](CCCCO)C(=O)O [YDE-033] (H-[Hyp]GQLGLAGP[X1]-OH)					5.6%	60.55 ± 21.22%	4.99 ± 1.20 mm^3	4.54 ± 1.16 mm^3	did not show any significant changes
CC(C)C[C@H](NC(=O)CNC(=O)[C@H](CC(C)C)NC(=O)[C@H](CCC(N)=O)NC(=O)CNC(=O)[C@@H]1C[C@H](O)CN1)C(=O)N[C@@H](C)C(=O)NCC(=O)N1CCC[C@H]1C(=O)N[C@@H](CCCCN)C(=O)O [YDE-034] (H-[cisHyp]GQLGLAGPK-OH)					1.25%	32.17 ± 12.94%	6.16 ± 1.01 mm^3	6.43 ± 1.86 mm^3	did not show any significant changes
CC(C)C[C@H](NC(=O)CNC(=O)[C@H](CC(C)C)NC(=O)[C@H](CCC(N)=O)NC(=O)CNC(=O)[C@@H]1CC(=O)CN1)C(=O)N[C@@H](C)C(=O)NCC(=O)N1CCC[C@H]1C(=O)N[C@@H](CCCCN)C(=O)O [YDE-035] (H-[Pro(4-oxo)]GQLGLAGPK-OH)					3.89%	27.62 ± 6.51%	4.96 ± 0.96 mm^3	6.25 ± 0.79 mm^3	
CC(C)C[C@H](NC(=O)CNC(=O)[C@H](CC(C)C)NC(=O)[C@H](CCC(N)=O)NC(=O)CNC(=O)[C@@H]1CCC(=O)N1)C(=O)N[C@@H](C)C(=O)NCC(=O)N1CCC[C@H]1C(=O)N[C@@H](CCCCN)C(=O)O [YDE-036] ([pGlu]GQLGLAGPK-OH)					8.77%	57.87 ± 22.91%	4.95 ± 1.05 mm^3	5.13 ± 1.03 mm^3	did not show any significant changes
CC(C)C[C@H](NC(=O)CNC(=O)[C@H](CC(C)C)NC(=O)[C@H](CCC(N)=O)NC(=O)CNC(=O)[C@@H]1C[C@@H](F)CN1)C(=O)N[C@@H](C)C(=O)NCC(=O)N1CCC[C@H]1C(=O)N[C@@H](CCCCN)C(=O)O [YDE-039] (H-[Pro(trans-4-F)]GQLGLAGPK-OH)					2.19%	29.94 ± 11.40%	6.04 ± 1.01 mm^3	6.44 ± 1.96 mm^3	
CC(C)C[C@H](NC(=O)CNC(=O)[C@H](CC(C)C)NC(=O)[C@H](CCC(N)=O)NC(=O)CNC(=O)[C@@H]1CC(C)(C)CN1)C(=O)N[C@@H](C)C(=O)NCC(=O)N1CCC[C@H]1C(=O)N[C@@H](CCCCN)C(=O)O [YDE-040] (H-[Pro(4,4-Me2)]GQLGLAGPK-OH)					3.58%	18.33 ± 9.41%	5.77 ± 1.05 mm^3	8.63 ± 1.53 mm^3	
CC(C)C[C@H](NC(=O)CNC(=O)[C@H](CC(C)C)NC(=O)[C@H](CCC(N)=O)NC(=O)CNC(=O)[C@@H]1C[C@@H](O)CN1)C(=O)N[C@@H](C)C(=O)O [YDE-041] (H-[Hyp]GQLGLA-OH)					3.04%	46.38 ± 26.65%	5.01 ± 1.26 mm^3	6.25 ± 2.15 mm^3	did not show any significant changes
CC(C)C[C@H](NC(=O)CNC(=O)[C@H](CC(C)C)NC(=O)[C@H](CCC(N)=O)NC(=O)CNC(=O)[C@@H]1C[C@@H](O)CN1)C(=O)O [YDE-042] (H-[Hyp]GQLGL-OH)					3.98%	20.72 ± 11.37%	6.30 ± 1.08 mm^3	7.97 ± 1.48 mm^3	
CC(C)C[C@H](NC(=O)[C@H](CCC(N)=O)NC(=O)CNC(=O)[C@@H]1C[C@@H](O)CN1)C(=O)NCC(=O)O [YDE-043] (H-[Hyp]GQLG-OH)					3.43%	19.04 ± 7.36%	5.90 ± 1.06 mm^3	8.16 ± 1.42 mm^3	
CC(C)C[C@H](NC(=O)CNC(=O)[C@H](CC(C)C)NC(=O)[C@H](CCC(N)=O)NC(=O)CNC(=O)[C@@H]1CC[C@@H](C)N1)C(=O)N[C@@H](C)C(=O)NCC(=O)N1CCC[C@H]1C(=O)N[C@@H](CCCCN)C(=O)O [YDE-045] (H-[X2]GQLGLAGPK-OH)				high cell proliferation rate					
CC(C)C[C@H](NC(=O)CNC(=O)[C@H](CC(C)C)NC(=O)[C@H](CCC(N)=O)NC(=O)CNC(=O)[C@H]1C[C@H](O)CN1)C(=O)N[C@@H](C)C(=O)NCC(=O)N1CCC[C@H]1C(=O)N[C@@H](CCCCN)C(=O)O [YDE-057] (H-[dHyp]GQLGLAGPK-OH)				high cell proliferation rate					
CC(C)C[C@@H](NC(=O)CNC(=O)[C@@H](CC(C)C)NC(=O)[C@@H](CCC(N)=O)NC(=O)CNC(=O)[C@H]1C[C@@H](O)CN1)C(=O)N[C@H](C)C(=O)NCC(=O)N1CCC[C@@H]1C(=O)N[C@H](CCCCN)C(=O)O [YDE-060] (H-[d(cisHyp)]G[dQ][dL]G[dL][dA]G[dP][dK]-OH)				high cell proliferation rate					
PGQLGLAGPK [YDE-037]					2.88%	36.30 ± 9.75%	4.98 ± 0.66 mm^3	5.80 ± 0.90 mm^3	

— patent US11613558B2, “Peptides and pharmaceutical compositions for treating eye diseases” (Yuyu Pharma, Inc., priority 2018, dated 2023)
